In PMC5440000 (Clinical Interventions in Aging, 2017):

Target: Aβ42 (Homo sapiens, UniProt P05067)
Test: Thioflavin T aggregation assay, […] h at […]°C
Assay type: biochemical

Sequence of Aβ42 (P05067 672-713): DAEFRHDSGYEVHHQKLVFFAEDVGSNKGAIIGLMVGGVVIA

IC50 [nM] | Compound
2290 | CC1=C(/C=C/C(C)=C/C=C/C(C)=C/C=C/C=C(C)/C=C/C=C(C)/C=C/C2=C(C)C[C@@H](O)CC2(C)C)C(C)(C)C[C@H](O)C1 [zeaxanthin]
1970 | CC1=C(/C=C/C(C)=C/C=C/C(C)=C/C=C/C=C(C)/C=C/C=C(C)/C=C/C(=O)[C@]2(C)C[C@@H](O)CC2(C)C)C(C)(C)CCC1 [cryptocapsin]
